Test results taken from patent US8591865B2, “Renal function analysis method and apparatus” (Pharmacophotonics, Inc., priority 2008, dated 2013).
“And” between values parts separate entries of the source, which are not always exact repeats. Identical values can stand only once. “Also recorded” adds a separate entry of the source.

Legend:
[1] = GFR by iohexol plasma clearance in gentamycin-induced AKI dogs; type: in vivo, dog
Description: EDTA-anticoagulated blood was collected at 0, 5, 10, 20, 30, 60, 180, 240 and 300 minutes post-injection, centrifuged within 3 hours, and stored at -20° C.

[2] = GFR in dog by iohexol analysis; details: 33.0 kg dog
Description: The higher noise in the data was caused by the movement during the data collection as the dog was not anesthetized.

[3] = GFR in swine by iohexol plasma disappearance; type: in vivo, Osawbaw swine; details: same swine
[4] = Intravital 2-photon microscopy of plasma clearance (fluorescence intensity / intensity ratio in kidney blood vessels) after bolus infusion; details: kidney of normal male rat, bolus IV infusion of dye mixture, 12-200 seconds
Description: These images were taken as function of time after a bolus intravenous infusion of a dye mixture containing a FITC-inulin (5.5 kD) and 500 kD dextran labeled with a sulforhodamine 101, i.e. Texas Red®. […] A red blood cell (RBC) appears as a dark object as it excludes dye.
The intensity ratio from the blood vessels in FIG. 3 changes over time with a change of relative concentrations of the two dyes.
Each data point in FIG. 5 was the average ratio value of the same region from a blood vessel extracted from an image time-series (such as the images shown in FIG. 3). The data points were plotted every 0.5 seconds up to 200 seconds.

dogs = assay: Gentamycin-induced acute kidney injury in dogs: serum creatinine, BUN, USG, UPC; type: in vivo, dog; details: individual dogs; for Creatinine: gentamycin 10 mg/Kg IV q8 hours
Excerpt: Five spayed female young adult hound-type mogrel dogs were confirmed to be in good health based on physical examination, complete blood count, blood chemistry analysis, urinalysis, urine protein-to-creatine ratio (UPC) and aerobic urine culture.

With CC(=O)N(CC(O)CO)c1c(I)c(C(=O)NCC(O)CO)c(I)c(C(=O)NCC(O)CO)c1I (stereo not drawn) [iohexol] the “GFR: Iohexol Plasma Clearance” value ([1]; Day 0, 150 mg/kg iohexol IV, individual dogs (repeat results for two dogs), 150 mg/kg) was 2.77 mL/min/kg and 4.00 mL/min/kg and 3.71 mL/min/kg and 3.82 mL/min/kg and 4.40 mL/min/kg, the “GFR: Iohexol Plasma Clearance” value ([1]; Day 3 of gentamycin, individual dogs) was 2.00 mL/min/kg and 3.45 mL/min/kg and 2.05 mL/min/kg and 4.17 mL/min/kg and 3.06 mL/min/kg and the “GFR: Iohexol Plasma Clearance” value ([1]; Day 6 of gentamycin, individual dogs) was 2.78 mL/min/kg and 2.05 mL/min/kg and 2.46 mL/min/kg and 1.44 mL/min/kg and 3.36 mL/min/kg. The “GFR: Iohexol Plasma Clearance” value ([1]; Day 9 of gentamycin, individual dogs) was 1.87 mL/min/kg and 0.10 mL/min/kg and 1.49 mL/min/kg and 2.47 mL/min/kg, the clearance ([1]; hound-type mongrel, dog, plasma, iv, 150 mg/kg, GFR: Iohexol Plasma Clearance, Day 0, 150 mg/kg iohexol IV, individual dogs (repeat results for two dogs)) was 3.28 mL/min/kg and the “GFR obtained from iohexol analysis” value [2] was 4.50 mL/min/kg. For the same compound, the “GFR obtained using iohexol samples drawn for six hours” value [3] was 2.02 mL/min/kg.

With “fluorescein isothiocyanate-inulin [FITC-inulin]” the “glomerular filtration / plasma clearance seen as capillary fluorescence intensity over time” value [4] was “rapidly filtered into the proximal tubular lumen; also recorded: immediate plasma clearance”.

With gentamycin the BUN (dogs; Day 0 (baseline)) was 20 mg/dl (2×) and 14 mg/dl and 16 mg/dl and 9 mg/dl, the “UPC (urine protein-to-creatine ratio)” value (dogs; Day 0 (baseline)) was 0.1 (4×) and 0.2 and the “USG (urine specific gravity)” value (dogs; Day 0 (baseline)) was 1.014 and 1.030 and 1.048 and 1.044 and 1.052. For the same compound, the Creatinine (dogs; Day 0 (first day of injection, baseline)) was 0.8 mg/dl and 1.1 mg/dl and 0.9 mg/dl (2×) and 0.7 mg/dl, the Creatinine (dogs; Day 3) was 0.9 mg/dl (2×) and 1.0 mg/dl (2×) and 0.8 mg/dl and the BUN (dogs; Day 3) was 16 mg/dl and 12 mg/dl (2×) and 15 mg/dl and 14 mg/dl. For the same compound, the “UPC (urine protein-to-creatine ratio)” value (dogs; Day 3) was 0.5 and 1.0 and 0.2 and 0.3 (2×), the “USG (urine specific gravity)” value (dogs; Day 3) was 1.008 and 1.014 (2×) and 1.000 and 1.010 and the Creatinine (dogs; Day 6) was 1.2 mg/dl and 1.5 mg/dl and 1.4 mg/dl and 1.0 mg/dl (2×). The BUN (dogs; Day 6) was 22 mg/dL and 15 mg/dL and 16 mg/dL and 10 mg/dL and 14 mg/dL, the “UPC (urine protein-to-creatine ratio)” value (dogs; Day 6) was 0.5 (2×) and 0.0 (2×) and 0.6 and the “USG (urine specific gravity)” value (dogs; Day 6) was 1.009 and 1.003 and 1.007 and 1.005 and 1.010. The Creatinine (dogs; Day 9) was 1.5 mg/dL and 5.3 mg/dL and 1.9 mg/dL and 1.6 mg/dL and 1.1 mg/dL, the BUN (dogs; Day 9) was 16 mg/dl (2×) and 97 mg/dl and 18 mg/dl and 14 mg/dl and the “UPC (urine protein-to-creatine ratio)” value (dogs; Day 9) was 2.1 and 2.8 and 3.1 and 1.7 and 1.6. For the same compound, the “USG (urine specific gravity)” value (dogs; Day 9) was 1.006 (2×) and 1.011 and 1.004 and 1.005.
